In patent EP2065031A1, “Skin treatment composition” (Evonik Goldschmidt GmbH, priority 2007, dated 2009):

What was measured:
[1] = solubility of arjunolic acid in water, cosmetic oils and solvents; assay type: physicochemical
Excerpt: Skin is subject to deterioration through the passage of time (chronological aging, dermatological disorders, hormonal changes, environmental abuse (wind, air conditioning, central heating, pollution) all of which may be accelerated by exposure of skin to radiation from the sun (photoaging). Chronological aging and photoaging is summarized under the term aging. Consumers are increasingly seeking cosmetic products which treat or delay the visible signs of aging skin such as wrinkles, lines, loss of elasticity, uneven skin tone, dry skin, sagging, hyperpigmentation and age spots. There continues to be a need, however, for alternative effective cosmetic compositions for topical application to skin for treating and delaying skin aging. […] This effect be boosted by combinations with at least one additional active selected from the group of anti-aging, anti-inflammatory, anti-cellulite, moisturization, skin barrier improving, anti-wrinkle, firming, soothing or calming active ingredients. As described above arjunolic acid is poorly soluble in common solvents: It is insoluble in water and poorly soluble in cosmetic oils like mineral oil, isopropyl myristate or other ester oils or cosmetic solvents like propylene glycol or glycerol. The solubility of arjunolic acid in propylene glycol is only 0.6%; in ispropylmyristate, mineral oil and glycerin less than 0.1% arjunolic acid are soluble. This leads to the problem that it is very difficult to keep a sufficient amount of arjunolic acid solubilized in the cosmetic preparation without crystallization.

skin [2] = test: skin hydration (corneometer) in volunteers; assay type: in vivo, human; conditions: formulation with 0.1625% arjunolic acid, twice daily, 4 weeks, left inner forearm, figure 2
Excerpt: (§1) For the study 30 volunteers were recruited. 15 volunteers got the test formulation with 0.1625% arjunolic acid, 15 got the formulation without active ingredient (carrier). They applied the test formulation twice daily over a period of 4 weeks on the left inner forearm. A Tewameter (TM 300, Courage & Khazaka, Cologne, D) was used to determine the transepidermal water loss. A corneometer (CM825, Courage & Khazaka, Cologne, D) was used to determine the skin hydration. The measurements were performed before the application started and after 4 weeks. Before the measurement started the panelists had to climatize in a climatic room at 21-22°C and 50% relative humidity for at least 15 min.

TSP1 = TSP1 expression in reconstructed human epidermis (RHE) skin models, real time RT-PCR; assay type: cell-based; conditions: 50 µl aqueous formulation containing 0.325% arjunolic acid, 48 hours, versus formulation without arjunolic acid, read-out: increased expression of TSP1
Method: Since thrombospondin 1 (TSP1) has been described by Murphy-Ullrich et al. 2000, Cytokine & Growth Factor Reviews; 11: 59-69 as one of the most important endogenous activators of TGF-β1 we investigated the effect of arjunolic acid on TSP1 expression in reconstructed human epidermis (RHE) skin models.
For this purpose RHE skin models (SkinEthic laboratories, Nice, France) were incubated with 50 µl of the test formulation (aqueous arjunolic acid formulation containing 0.325% arjunolic acid, 3% Glyceryl Stearate, 3% Ceteareth-20, 1% Stearyl Alcohol, 4% Cetearyl Ethylhexanoate/Isopropylmyristate and 4% Caprylic/Capric Triglyceride) in a humidified atmosphere containing 5 % CO2 for 48 hours. Then cell culture supernatants were removed and skin models were immediately transferred into a 2 ml reaction tube containing 1,5 ml RNAlater RNA stabilisation reagent (#76104, Qiagen, Hilden, Germany) to avoid RNA degradation. Controls received formulation without arjunolic acid only. […] Real time RT-PCR analysis was performed to quantify expression of TSP1. […] Results were analysed with SDS 2.0 software (Applied Biosystems). Relative quantification was performed according to the delta-delta-Ct method with 18s ribosomal RNA (18s rRNA) used as a house keeping gene.

skin [3] = test: transepidermal water loss (Tewameter) in volunteers; assay type: in vivo, human; conditions: formulation with 0.1625% arjunolic acid versus carrier, twice daily, 4 weeks, left inner forearm, figure 1
Excerpt: as §1

[4] = test system: human skin fibroblast cells; conditions: incubation of human skin fibroblast cells with 6.25 mg/mL arjunolic acid; cited from earlier work
skin [5] = test: skin elasticity (Cutometer) in volunteers; assay type: in vivo, human; conditions: formulation containing 0.1625% arjunolic acid, twice daily, 8 weeks, left inner forearm
Method: Method: For this study 30 volunteers were recruited. 15 volunteers got the test formulation with 0.1625% arjunolic acid, 15 got the formulation without active ingredient (carrier). They applied the test formulation twice daily over a period of 8 weeks on the left inner forearm.
The skin elasticity was assessed with a Cutometer MPA 580 (Courage & Khazaka, Cologne, D) which measures the vertical deformation of the skin when sucked into the loop of a measuring probe and reversed into its original condition. From the stretching/release cycles different parameters describing the skin elasticity were calculated. The parameter R1 describes the remaining deformation after the first stretching cycle while R5 is known as netto elasticity (R5 = UR/UE).
For the stretching a vacuum of 450 mbar was kept for 5s, the relaxing time was also 5s. The measurement was carried out after a climatization of the volunteers at room temperature and 50 % relative humidity for at least 15 min. before the treatment started and after 8 weeks of application.

skin [6] = test: skin scaliness (Visioscan camera) in volunteers; assay type: in vivo, human; conditions: 0.25% arjunolic acid in the formulation as printed, versus carrier, twice daily, 4 weeks, left inner forearm, figure 5
Method: For this study 30 volunteers were recruited. […] They applied the test formulation twice daily over a period of 4 weeks on the left inner forearm. The measurement was carried out after an acclimatization of the volunteers at room temperature and 50 % relative humidity before the treatment started and after 4 weeks of application.
For the evaluation of the skin scaliness a special camera (Visioscan VC 98, Courage & Khazaka, Cologne, D) was used. […] The picture taken with this camera is converted into a digital signal with 256 grey levels. Via the grey level distribution the software calculates the skin scaliness.

skin [7] = conditions: moisturizer containing arjunolic acid, volunteers; cited from earlier work

Structure (SMILES): CC1(C)CC[C@]2(C(=O)O)CC[C@]3(C)C(=CC[C@@H]4[C@@]5(C)C[C@@H](O)[C@H](O)[C@@](C)(CO)[C@@H]5CC[C@]43C)[C@@H]2C1 [arjunolic acid, 2a,3b,23-trihydroxyolean-12-en-28-oic acid]
- solubility in glycerin ([1]; glycerin): less than 0.1%
- solubility in ispropylmyristate ([1]; ispropylmyristate): less than 0.1%
- solubility in mineral oil ([1]; mineral oil): less than 0.1%
- solubility in propylene glycol ([1]; propylene glycol): 0.6%
- solubility in water ([1]; water): insoluble
- skin hydration (skin [2]): increases skin hydration significantly
- fold induction at 0.325 % (TSP1): ~10
- transepidermal water loss (TEWL) (skin [3]): improves skin barrier
- collagen formation [4]: 30.9 ng/mg
- R1, the remaining deformation after the first stretching cycle (skin [5]; figure 3): improved significantly
- R5, the netto elasticity (skin [5]; figure 4): improved significantly
- reduction of the scaliness (skin [6]): improved further
- anti-wrinkle effects (skin [7]): good anti-wrinkle effects
